As a reminder, the IC50 is the concentration that gives 50% inhibition.

One series has as its target human TRPA1 (Homo sapiens, UniProt O75762). The experiment in a line: Inhibition of the TRPA1 ion channel, whole cell patch configuration (Example 1). In kind it is cell-based. Particulars: current activation 10 µM AITC, read-out: Human TRPA1 IC50 Inward Current. On the procedure: Compounds of Formula (Ia) inhibit the TRPA1 channel, as measured using the method of Example 1. […] Data for TRPA1 inhibition and for TRPA1 selectivity was obtained by this method for the indicated compounds of Formula (Ia), with the relevant data included in Tables 1a - f below. All currents were recorded in whole-cell configuration using EPC-9 and EPC-10 amplifiers and Patchmaster software (HEKA). […] The standard pipette solution consisted of 140mM CsAsp, 10 mM EGTA, 10 mM HEPES, 2.27 mM MgCl2, 1.91 mM CaCl2, 4 mM MgATP, and 0.1-0.3 mM Na2GTP, with pH adjusted to 7.2 with CsOH. In addition, a solution containing 145 mM CsCl, 10 mM HEPES, 10 mM EGTA and 1 mM MgCl2 (pH 7.2 adjusted with CsOH) can be used. The standard bath solution contained 150 mM NaCl, 10 mM HEPES, 10 mM glucose, 4.5 mM KCl, 1 mM EGTA, 3 mM MgCl2, with pH adjusted to 7.4 with NaOH. In some instances, 2 mM CaCl2 was added in place of EGTA and the concentration of MgCl2 was reduced to 1 mM.
Data were collected either by continuous recordings at -60 mV or by applying voltage ramps from a holding potential of 0 mV every 4 s. Continuous recordings were collected at 400 Hz and digitally filtered off-line at 10 Hz for presentation. Voltage ramps were applied from - 100 mV to 100 mV over the course of 400 ms, and data were collected at 10 kHz and filtered at 2.9 kHz. Inward and outward currents were analyzed from the ramps at -80 and 80 mV, respectively. Liquid junction potential correction was not used.
Solutions were switched using a gravity-fed continuous focal perfusion system. To achieve rapid temperature changes, two temperature control, and perfusion systems were employed simultaneously. For temperatures ≥ 22°C, a Warner Instruments bipolar temperature controller (TC-344B) and inline heater (SHM-8) were used. […] Temperatures were confirmed using a thermistor (Warner Instruments, TA-29), with temperatures at the recorded cell estimated to be within +/- 2°C of those reported.
The antagonist effects of compounds of Formula (Ia) against human TRPA1 ("hTRPA1") and for some compounds rat TRPA1 ("rTRPA1") in a whole cell patch configuration were evaluated using the in vitro assay described above. The current activation tested was 10 µM AITC, and the tested concentrations ranged from 5 µM and 500 nM. Table 1a (Comparative Compounds)

Another series has as its system rats. As to the kind of experiment: Rodent formalin pain model (Example 3). It counts as in vivo. Particulars: rat; for Minimal Efficacious Dose of Compound in Formalin Model: IV, statistically significant difference vs vehicle at 0 - 2 min (p≤0.05); for Duration of Pain Behavior: first two minutes after formalin, vehicle 88.6. On the procedure: Compounds of Formula (Ia) are active in rodent models of pain induced by direct activation of the TRPA1 channel with intraplantar injection of the TRPA1 agonist formalin. Compounds of Formula (Ia) were tested in the formalin-induced pain test reported by Abbott et. al. Pain. 1995 Jan;60(1):91-102. Dubuisson et al. describe a method for assessing pain and analgesia in rats. Briefly, dilute formalin (50 µL of 3 % formalin) is injected into the plantar surface of the hind paw. […] The individual responsible for counting the pain behaviors in a particular study is blinded to the treatment groups.
Table 2 is a data table showing the results from testing compounds of Formula (Ia) in the rodent formalin-induced pain model described in […]. Rats were treated with the compounds of Formula (Ia) at various doses (0.1, 0.3, 1, 1.2, 3, 4, 10, or 30 mg/Kg IV) or with a control composition containing the vehicle (i.e., without a compound of Formula (Ia)). Pain behaviors (flinch, lift, lick, bite) were monitored following intraplantar formalin injection. Referring to Table 2, the minimum effective dose was derived from dose resulting in statistically significant difference in behavior at 0 - 2 min time period as compared with vehicle (p≤0.05).

A short description of series [1]: Aqueous solubility in buffered solutions, HPLC (Example 2). It counts as physicochemical. Particulars: kinetic from dmso stock, ambient temperature.
Where [2] appears, read: sodium bicarbonate buffer in water for injection/5% dextrose, pH 9.0, 50 mM sodium bicarbonate, read-out: pH 9.0 aqueous solubility.
Setting [3] is: sodium phosphate buffer in water for injection/5% dextrose, pH 7.4, 75 mM sodium phosphate, read-out: pH 7.4 aqueous solubility.

Molecules are shown by their SMILES. In brackets after ≈: the same amount, converted by molar mass. Where two headings read alike, the source gives them in different places.

human TRPA1, sequence (O75762 whole entry): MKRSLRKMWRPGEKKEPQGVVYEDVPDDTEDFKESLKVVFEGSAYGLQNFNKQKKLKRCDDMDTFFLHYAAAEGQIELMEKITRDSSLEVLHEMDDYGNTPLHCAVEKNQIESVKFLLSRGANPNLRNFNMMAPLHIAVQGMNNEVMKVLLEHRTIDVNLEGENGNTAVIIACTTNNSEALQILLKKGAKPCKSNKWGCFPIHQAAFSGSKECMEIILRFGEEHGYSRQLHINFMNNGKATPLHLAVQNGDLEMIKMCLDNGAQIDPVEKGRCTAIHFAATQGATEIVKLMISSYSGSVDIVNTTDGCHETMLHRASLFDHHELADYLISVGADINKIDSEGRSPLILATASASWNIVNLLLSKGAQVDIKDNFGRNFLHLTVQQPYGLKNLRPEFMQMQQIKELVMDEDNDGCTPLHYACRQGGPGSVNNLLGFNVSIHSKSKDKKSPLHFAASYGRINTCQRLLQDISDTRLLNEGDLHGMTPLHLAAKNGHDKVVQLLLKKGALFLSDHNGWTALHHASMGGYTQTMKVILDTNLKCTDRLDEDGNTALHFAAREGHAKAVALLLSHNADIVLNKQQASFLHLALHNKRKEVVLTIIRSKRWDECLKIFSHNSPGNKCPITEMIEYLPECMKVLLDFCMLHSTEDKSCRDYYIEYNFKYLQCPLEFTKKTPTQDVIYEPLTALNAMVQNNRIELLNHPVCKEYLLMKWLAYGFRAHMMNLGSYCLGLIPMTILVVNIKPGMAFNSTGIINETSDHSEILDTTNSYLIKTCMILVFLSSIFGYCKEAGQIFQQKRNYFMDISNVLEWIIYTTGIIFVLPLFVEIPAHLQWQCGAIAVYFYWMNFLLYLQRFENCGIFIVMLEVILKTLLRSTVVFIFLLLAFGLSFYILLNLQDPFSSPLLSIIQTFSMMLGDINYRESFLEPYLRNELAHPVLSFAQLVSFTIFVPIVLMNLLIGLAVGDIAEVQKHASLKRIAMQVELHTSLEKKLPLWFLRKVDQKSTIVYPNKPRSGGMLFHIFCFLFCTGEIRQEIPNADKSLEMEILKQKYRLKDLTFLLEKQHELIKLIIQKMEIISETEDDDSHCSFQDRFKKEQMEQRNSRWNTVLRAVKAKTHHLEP

As to `[2H]C([2H])([2H])n1c(=O)n(C)c(=O)c2c1ncn2[C@H](C)C(=O)Nc1cncc(-c2cnc(N3CCCC3(C)C)nc2)n1` [Compound 2-I], at human TRPA1, the IC50 is more than 100 nM.
Consider `C[C@H](C(=O)Nc1cncc(-c2cnc(N3CCCC3(C)C)nc2)n1)n1cnc2c1c(=O)n(C)c(=O)n2C` [Compound 2-G], for which the IC50 on human TRPA1 is more than 100 nM.
For the molecule `C[C@H](C(=O)Nc1cncc(-c2cnc(N3CCC[C@@H]3C)nc2)n1)n1cnc2c1c(=O)n(C)c(=O)n2C` [Compound 3-L], the IC50 at human TRPA1 was more than 100 nM.
Take `C[C@H]1CCCN1c1ncc(-c2cccc(NC(=O)[C@H](C)n3cnc4c3c(=O)n(C)c(=O)n4C)n2)cn1` [Compound 4-P]: the IC50 at human TRPA1 lay in the range of 25 to 75 nM.
The same measure, in the same setting: as for `CC(C(=O)Nc1cccc(-c2cnc(N3CCC[C@H]3C(F)(F)F)nc2)n1)n1cnc2c1c(=O)n(C)c(=O)n2C` (stereo partly shown) [Compound 1-C], the figure is less than 25 nM.
With `C[C@H]1CCCN1c1ncc(-c2cncc(NC(=O)[C@H](C)n3cnc4c3c(=O)n(C)c(=O)n4C)n2)cn1` [Compound 3-K, (S)-2-(1,3-dimethyl-2,6-dioxo-1,2,3,6-tetrahydro-7H-purin-7-yl)-N-(6-(2-((S)-2-methylpyrrolidin-1-yl)pyrimidin-5-yl)pyrazin-2-yl)propanamide], in the series on rats, the “Minimal Efficacious Dose of Compound in Formalin Model” value (from here on “Minimal Efficacious Dose of Compound”) is reported as less than 3 mg/kg. For the same molecule, the “Duration of Pain Behavior” value came out at 13.5 s in the series with rats (dose 3 mg/kg IV), 2.6 s in the series on rats (dose 10 mg/kg IV) and 3.4 s in the series with rats (dose 30 mg/kg IV). On human TRPA1, the IC50 lay within 25 to 75 nM. Moreover, the values for the solubility kinetic at 24 h in series [1] (setting [2]) and in series [1] (setting [3]) were 48 µg/mL (≈ 97.9 µM) and 38 µg/mL (≈ 77.5 µM), respectively.
As for `C[C@H]1CCCN1c1cncc(NC(=O)[C@H](C)N2C=NC3C2C(=O)N(C)C(=O)N3C)n1` (stereo partly shown) [Comparator 5, reference compound], the IC50 at human TRPA1 is more than 100 nM.
As for `C[C@H](C(=O)Nc1cncc(-c2cnc(N3CCC[C@H]3C(F)(F)F)nc2)n1)n1cnc2c1c(=O)n(C)c(=O)n2C` [Compound 5-V], at human TRPA1, the IC50 is more than 100 nM.
As for `CC(C(=O)Nc1cncc(-c2cnc(N3CCC[C@H]3C(F)(F)F)nc2)n1)n1cnc2c1c(=O)n(C)c(=O)n2C` (stereo partly shown) [Compound 5-U], the IC50 at human TRPA1 is less than 25 nM.
Regarding `C[C@H](C(=O)Nc1cccc(-c2cnc(N3CCC[C@@H]3C)nc2)n1)n1cnc2c1c(=O)n(C)c(=O)n2C` [Compound 4-R], the IC50 at human TRPA1 was more than 100 nM.
`C[C@@H](C(=O)Nc1cncc(-c2cnc(N3CCCC3(C)C)nc2)n1)n1cnc2c1c(=O)n(C)c(=O)n2C` [Compound 2-F, (S)-2-(1,3-dimethyl-2,6-dioxo-1,2,3,6-tetrahydro-7H-purin-7-yl)-N-(6-(2-(2,2-dimethylpyrrolidin-1-yl)pyrimidin-5-yl)pyrazin-2-yl)propanamide]: the “Minimal Efficacious Dose of Compound” value in the series on rats amounted to 1 mg/kg. The figures for the “Duration of Pain Behavior” value with rats (dose 0.3 mg/kg IV), in the series with rats (dose 1 mg/kg IV) and with rats (dose 3 mg/kg IV) were 67.5 s, 7 s and 5 s, respectively. For the same molecule, the IC50 at human TRPA1 is less than 25 nM. The solubility kinetic at 24 h in series [1] (setting [2]) and in series [1] (setting [3]) was 6 µg/mL (≈ 11.9 µM) in each case.
Regarding `[2H]C([2H])([2H])n1c(=O)n(C)c(=O)c2c1ncn2[C@@H](C)C(=O)Nc1cncc(-c2cnc(N3CCCC3(C)C)nc2)n1` [Compound 2-H], at human TRPA1, the IC50 was less than 25 nM.
In the case of `C[C@@H](C(=O)Nc1cccc(-c2cnc(N3CCC[C@H]3C(F)(F)F)nc2)n1)n1cnc2c1c(=O)n(C)c(=O)n2C` [Compound 1-B, (S)-2-(1,3-Dimethyl-2,6-dioxo-1,2,3,6-tetrahydro-7H-purin-7-yl)-N-(6-(2-((S)-2-(trifluoromethyl)pyrrolidin-1-yl)pyrimidin-5-yl)pyridin-2-yl)propanamide], the “Minimal Efficacious Dose of Compound” value in the series on rats is listed as less than 3 mg/kg. Also, the “Duration of Pain Behavior” value came out at 6.1 s with rats (dose 3 mg/kg IV) and 0.3 s in the series on rats (dose 10 mg/kg IV). Further, on human TRPA1, the IC50 is less than 25 nM. In addition, the solubility kinetic at 24 h in series [1] (setting [2]) was found to be 49 µg/mL (≈ 90.2 µM); in series [1] (setting [3]) it was 44 µg/mL (≈ 81 µM).
Regarding `C[C@H](C(=O)Nc1cccc(-c2cnc(N3CCC[C@H]3C(F)(F)F)nc2)n1)n1cnc2c1c(=O)n(C)c(=O)n2C` [Compound 1-D], the IC50 at human TRPA1 is more than 100 nM.
For the molecule `C[C@H]1CCCN1c1cccc(NC(=O)[C@H](C)N2C=NC3C2C(=O)N(C)C(=O)N3C)n1` (stereo partly shown) [Comparator 6, reference compound], the IC50 on human TRPA1 is more than 100 nM.
Consider `CC(C(=O)Nc1cccc(-c2cnc(N3CCC[C@@H]3C)nc2)n1)n1cnc2c1c(=O)n(C)c(=O)n2C` (stereo partly shown) [Compound 4-Q], for which the IC50 on human TRPA1 was in the range of 25 to 75 nM.
For `C[C@H]1CCCN1c1ncc(-c2cncc(NC(=O)[C@H](C)n3cnc4c3c(=O)n(C)c(=O)n4C)n2)cn1` [Compound 3-N, (S)-2-(1,3-dimethyl-2,6-dioxo-1,2,3,6-tetrahydro-7H-purin-7-yl)-N-(6-(2-((S)-2-methylpyrrolidin-1-yl)pyrimidin-5-yl)pyrazin-2-yl)propanamide], at human TRPA1, the IC50 was more than 100 nM.
Still for that read-out and setting: to `C[C@H]1CCCN1c1ccc(-c2csc(NC(=O)C(C)(C)n3cnc4c3c(=O)n(C)c(=O)n4C)n2)cc1F` [Comparator 4, reference compound] belongs more than 100 nM; to `[2H]C([2H])([2H])n1c(=O)n(C)c(=O)c2c1ncn2[C@@H](C)C(=O)Nc1cncc(-c2cnc(N3CCC[C@@H]3C)nc2)n1` [Compound 3-M], less than 25 nM.
Turning to `CC(C)c1ccc(NC(=O)C(C)n2cnc3c2c(=O)n(C)c(=O)n3C)cc1` (stereo not shown) [Comparator 3, reference compound], on human TRPA1, the IC50 is more than 100 nM.

(Values after patent publication EP2945947B1, “INHIBITING THE TRANSIENT RECEPTOR POTENTIAL A1 ION CHANNEL” (Merck Sharp & Dohme Corp., priority 2013, dated 2014).)
